Assay results from patent US5981498A, “Agent for improving the blood circulation” (Kabushiki Kaisha Hayashibara Seibutsu Kagaku Kenkyujo, priority 1997, dated 1999).

Columns and labels:
[1] = tested on: blood flow, dorsum cucullaris of volunteer with stiffness in both shoulders; experiment: Plethysmogram / volume pulse wave (PTG), improvement of blood circulation; type: in vivo, human; conditions: similar experiment on vitamin P, cataplasm, MV and PTG
Source text: MV is an apparatus for recording micro-vibration of ballistic components accompanied by muscular fibers in vivo and heartbeat by converting the micro-vibration into an electrodynamic phenomenon where peaks are detected at a high-frequency region in patients with muscular rigidity such as stiffness in the shoulder, and the peaks are shifted to a lower-frequency region as the muscular rigidity is relived. PTG is an apparatus for detecting blood flow as a vascular change in pressure and for expressing change in volume as a wave-height level; When the wave-height level is increased as the increment of blood flow in a stiff part in the shoulder, meaning that blood circulation is improved.
The patient was monitored for both MV and PTG by a polygraph for 20 min, and the data were recorded by a data recorder.
On the next morning, the cataplasm was removed from the volunteer while they were allowed to lay on the bed, followed by attaching pickups to the same part as of the cataplasm for measuring and recording MV and PTG for 30 min and for two hours, respectively, similarly as above.

[2] = tested on: lumbago or chronic stiffness in the shoulder; experiment: Clinical test, cataplasm (Table 1); type: in vivo, human; conditions: versus sucrose; Tables 1 and 2
Method: A clinical paramedic conducted the experiment and, after the experiment, asked the therapeutic effect and the side effects of the volunteers. The therapeutic effect was evaluated with four ranks of "very effective", "effective", "unchanged", and "worsened", and the effectivity (%) was calculated as a percentage of the number of volunteers, who answered "very effective" and "effective", to the total number of volunteers.

Molecule: vitamin P
- effect as compared with control [1]: substantially showed no remarkable effect

Molecule: OC[C@H]1O[C@H](O[C@H]2O[C@H](CO)[C@@H](O)[C@H](O)[C@H]2O)[C@H](O)[C@@H](O)[C@@H]1O [trehalose]
- effect of trehalose on the muscular-rigidity-relieving activity of glycosyl vitamin P [2]: significantly augmented
